The target of one assay is human KHK-A (Homo sapiens (Human), UniProt P50053). Nature of the assay: KHK Biochemical Assay (IC50), ADP-Glo, KHK-A. The note with it: average of at least two separate assays. A digest of the protocol:
(§1)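 Luminescent ADP-Glo read-out of ADP made by His-tagged KHK (BL21 (DE3) expression, Ni-NTA). Enzyme and compound sat together 30 min before ATP/fructose addition, then reacted 4 h at RT in Hepes pH 7.4 buffer with KCl, MgCl2, Triton-X. Quench 1 h, detection 1 h.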
A general note: ADP-Glo turns the ADP formed in a reaction into a luminescent signal.

A further assay has as its target human KHK-C (Homo sapiens (Human), UniProt P50053). Nature of the assay: KHK Biochemical Assay (IC50), ADP-Glo, KHK-C. The note with it: average of at least two separate assays. A digest of the protocol:
as §1

The structures appear in SMILES notation. Where only a bound is given, the exact number is not on record here.

Chain of human KHK-C (P50053 whole entry): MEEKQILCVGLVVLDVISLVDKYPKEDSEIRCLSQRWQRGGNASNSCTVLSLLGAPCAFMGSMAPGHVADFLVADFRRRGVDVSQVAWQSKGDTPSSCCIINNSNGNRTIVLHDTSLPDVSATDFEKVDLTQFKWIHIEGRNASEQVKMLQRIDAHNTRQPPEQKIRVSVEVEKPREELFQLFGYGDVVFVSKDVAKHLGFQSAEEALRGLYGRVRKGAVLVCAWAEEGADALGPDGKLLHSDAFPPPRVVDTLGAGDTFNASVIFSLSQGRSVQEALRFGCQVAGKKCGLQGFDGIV
Chain of human KHK-A (P50053 other isoform, or with tags, fused parts or gaps): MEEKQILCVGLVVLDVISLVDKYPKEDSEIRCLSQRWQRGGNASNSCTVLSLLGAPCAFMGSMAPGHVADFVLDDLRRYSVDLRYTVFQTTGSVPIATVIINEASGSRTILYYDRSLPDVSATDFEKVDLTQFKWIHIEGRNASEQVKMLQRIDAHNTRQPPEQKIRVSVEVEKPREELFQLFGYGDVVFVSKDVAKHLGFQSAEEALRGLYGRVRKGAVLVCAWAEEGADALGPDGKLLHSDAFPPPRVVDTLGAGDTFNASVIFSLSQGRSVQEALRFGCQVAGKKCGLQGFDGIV

Turning to `C[C@H]1CCN1c1nc2c(c(-c3cnccn3)n1)CCC2` [Example 344, 2-[(2S)-2-methylazetidin-1-yl]-4-pyrazin-2-yl-6,7-dihydro-5H-cyclopenta[d]pyrimidine], the IC50 at human KHK-A (ADP-Glo) was determined as 0.175 µM; against human KHK-C (ADP-Glo), 0.224 µM.

With `C[C@H]1CCN1c1nc2c(c(-c3ccc(S(C)(=O)=O)cc3)n1)CCC2` [Example 354, 2-[(2S)-2-methylazetidin-1-yl]-4-(4-methylsulfonylphenyl)-6,7-dihydro-5H-cyclopenta[d]pyrimidine], the results for the half-maximal inhibitory concentration (IC50) at human KHK-A (ADP-Glo) and at human KHK-C (ADP-Glo) were 0.177 µM and 0.138 µM, respectively.

In the case of `Cc1cc(-c2nc(N3CC[C@@H]3C)nc3c2CCC3)ccc1C(=O)NCCO` [Example 356, N-(2-hydroxyethyl)-2-methyl-4-[2-[(2S)-2-methylazetidin-1-yl]-6,7-dihydro-5H-cyclopenta[d]pyrimidin-4-yl]benzamide], the IC50 against human KHK-A (ADP-Glo) amounted to 0.0706 µM; against human KHK-C (ADP-Glo), 0.0799 µM.

Turning to `Cc1cc(-c2nc(N3CC[C@@H]3C)nc3c2CCC3)ccc1C(=O)N(C)C` [Example 357, N,N,2-trimethyl-4-[2-[(2S)-2-methylazetidin-1-yl]-6,7-dihydro-5H-cyclopenta[d]pyrimidin-4-yl]benzamide], the IC50 stood at 0.122 µM at human KHK-A (ADP-Glo) and 0.162 µM on human KHK-C (ADP-Glo).

With `C[C@H]1CCN1c1nc2c(c(-c3ccc(CNC(=O)c4ccccc4)cc3)n1)CCC2` [Example 360, N-[[4-[2-[(2S)-2-methylazetidin-1-yl]-6,7-dihydro-5H-cyclopenta[d]pyrimidin-4-yl]phenyl]methyl]benzamide], the IC50 on human KHK-A (ADP-Glo) came to 0.169 µM; against human KHK-C (ADP-Glo) it was 0.253 µM.

Regarding `C[C@H]1[C@H](O)CN1c1nc2c(c(-c3ccc(CN)s3)n1)CCC2` [Example 363, (2S,3R)-1-[4-[5-(aminomethyl)-2-thienyl]-6,7-dihydro-5H-cyclopenta[d]pyrimidin-2-yl]-2-methyl-azetidin-3-ol], the IC50 worked out at 0.0258 µM against human KHK-A (ADP-Glo) and 0.0291 µM against human KHK-C (ADP-Glo).

Take `C[C@H]1CCN1c1nc2c(c(-c3ccc(CN4CCOCC4)cc3)n1)CCC2` [Example 367, 4-[[4-[2-[(2S)-2-methylazetidin-1-yl]-6,7-dihydro-5H-cyclopenta[d]pyrimidin-4-yl]phenyl]methyl]morpholine]: the IC50 at human KHK-A (ADP-Glo) is 0.224 µM; at human KHK-C (ADP-Glo) it was 0.176 µM.

With `C[C@H]1CCN1c1nc2c(c(-c3ccc(CN(C)C)cc3)n1)CCC2` [Example 368, N,N-dimethyl-1-[4-[2-[(2S)-2-methylazetidin-1-yl]-6,7-dihydro-5H-cyclopenta[d]pyrimidin-4-yl]phenyl]methanamine], the IC50 against human KHK-A (ADP-Glo) stood at 0.0383 µM; against human KHK-C (ADP-Glo), 0.02 µM.

In the case of `C[C@H]1CCN1c1nc2c(c(-c3ccc(C(C)(C)O)cc3)n1)CCC2` [Example 369, 2-[4-[2-[(2S)-2-methylazetidin-1-yl]-6,7-dihydro-5H-cyclopenta[d]pyrimidin-4-yl]phenyl]propan-2-ol], the IC50 against human KHK-A (ADP-Glo) amounted to 0.186 µM; on human KHK-C (ADP-Glo), 0.0871 µM.

In the case of `C[C@H]1CCN1c1nc2c(c(-c3cccc(C(N)=O)c3)n1)C1CC1C2` (stereo partly drawn) [Example 445, 3-(2-((S)-2-methylazetidin-1-yl)-4b,5,5a,6-tetrahydrocyclopropa[3,4]cyclopenta[1,2-d]pyrimidin-4-yl)benzamide], the IC50 worked out at 0.131 µM against human KHK-A and 0.305 µM against human KHK-C.

`C[C@H]1CCN1c1nc2c(c(-c3ccc4c(c3)[nH]c(=O)n4C)n1)CCC2` [Example 452, 3-methyl-6-[2-[(2S)-2-methylazetidin-1-yl]-6,7-dihydro-5H-cyclopenta[d]pyrimidin-4-yl]-1H-benzimidazol-2-one]: the figures for the IC50 against human KHK-A and on human KHK-C were 0.103 µM and 0.0683 µM, respectively.

Take `C[C@H]1[C@H](O)CN1c1nc(-c2ccc3c(c2)OCC32COCC(=O)N2)c2c(n1)C(F)(F)CC2` (stereo partly drawn) [Example 497, 6-(7,7-difluoro-2-((2S,3R)-3-hydroxy-2-methylazetidin-1-yl)-6,7-dihydro-5H-cyclopenta[d]pyrimidin-4-yl)-2H-spiro[benzofuran-3,3′-morpholin]-5′-one]: the IC50 against human KHK-A was determined as 0.0022 µM; against human KHK-C, 0.0001 µM.

With `C[C@H]1[C@H](O)CN1c1nc(-c2ccc(OC3CC3)c(S(C)(=N)=O)c2)c2c(n1)C(F)(F)CC2` (stereo partly drawn) [Example 541, (2-cyclopropoxy-5-(7,7-difluoro-2-((2S,3R)-3-hydroxy-2-methylazetidin-1-yl)-6,7-dihydro-5H-cyclopenta[d]pyrimidin-4-yl)phenyl)(imino)(methyl)-λ^6-sulfanone], the IC50 is 0.0009 µM against human KHK-A and 0.0013 µM on human KHK-C.

Consider `C[C@H]1[C@H](O)CN1c1nc(-c2ccc3c(c2)CCC32COCC(=O)N2)c2c(n1)C(F)(F)CC2` (stereo partly drawn) [Example 548, 5-(7,7-difluoro-2-((2S,3R)-3-hydroxy-2-methylazetidin-1-yl)-6,7-dihydro-5H-cyclopenta[d]pyrimidin-4-yl)-2,3-dihydrospiro[indene-1,3′-morpholin]-5′-one], for which the IC50 against human KHK-A stood at 0.0073 µM; against human KHK-C it was 0.0001 µM.

Consider `C[C@H]1[C@H](O)CN1c1nc(-c2ccc3c(c2)OCCC32NC(=O)NC2=O)c2c(n1)C(F)(F)CC2` (stereo partly drawn) [Example 551, 7-(7,7-difluoro-2-((2S,3R)-3-hydroxy-2-methylazetidin-1-yl)-6,7-dihydro-5H-cyclopenta[d]pyrimidin-4-yl)spiro[chromane-4,4′-imidazolidine]-2′,5′-dione], for which the IC50 stood at 0.0051 µM against human KHK-A and 0.0009 µM against human KHK-C.

In the case of `C[C@H]1[C@H](O)CN1c1nc(-c2ccc3c(c2)OCCC32COC(=O)N2)c2c(n1)C(F)(F)CC2` (stereo partly drawn) [Example 553, 7-(7,7-difluoro-2-((2S,3R)-3-hydroxy-2-methylazetidin-1-yl)-6,7-dihydro-5H-cyclopenta[d]pyrimidin-4-yl)spiro[chromane-4,4′-oxazolidin]-2′-one], the half-inhibitory concentration (IC50) on human KHK-A was 0.0153 µM; at human KHK-C, 0.0016 µM.

Take `C[C@H]1[C@H](O)CN1c1nc(-c2ccc3c(c2)COCC32COC(=O)N2)c2c(n1)C(F)(F)CC2` (stereo partly drawn) [Example 554, 7-(7,7-difluoro-2-((2S,3R)-3-hydroxy-2-methylazetidin-1-yl)-6,7-dihydro-5H-cyclopenta[d]pyrimidin-4-yl)spiro[isochromane-4,4′-oxazolidin]-2′-one]: the IC50 at human KHK-A worked out at 0.0292 µM; on human KHK-C, 0.0028 µM.

Consider `C[C@H]1[C@H](O)CN1c1nc(-c2ccc3c(c2)CC2OC(=O)NC32)c2c(n1)C(F)(F)CC2` (stereo partly drawn) [Example 557, 6-(7,7-difluoro-2-((2S,3R)-3-hydroxy-2-methylazetidin-1-yl)-6,7-dihydro-5H-cyclopenta[d]pyrimidin-4-yl)-3,3a,8,8a-tetrahydro-2H-indeno[1,2-cl]oxazol-2-one], for which the figures for the IC50 against human KHK-A and at human KHK-C were 0.0108 µM and 0.0086 µM, respectively.

With `CC1OCC2(COc3cc(-c4nc(N5C[C@@H](O)[C@@H]5C)nc5c4CCC5(F)F)ccc32)NC1=O` (stereo partly drawn) [Example 558, 6-(7,7-difluoro-2-((2S,3R)-3-hydroxy-2-methylazetidin-1-yl)-6,7-dihydro-5H-cyclopenta[d]pyrimidin-4-yl)-6′-methyl-2H-spiro[benzofuran-3,3′-morpholin]-5′-one], the IC50 was determined as 0.0082 µM against human KHK-A and 0.0002 µM against human KHK-C.

As for `COC[C@H]1CCN1c1nc(-c2ccc(C3(N)COC3)cc2)c2c(n1)C(F)(F)CC2` [Example 569, (R)-3-(4-(7,7-difluoro-2-(2-(methoxymethyl)azetidin-1-yl)-6,7-dihydro-5H-cyclopenta[d]pyrimidin-4-yl)phenyl)oxetan-3-amine], the IC50 on human KHK-A was found to be 0.043 µM; against human KHK-C, 0.0152 µM.

With `C[C@H]1CCCN1c1nc(-c2ccc(C3(N)COC3)cc2)c2c(n1)C(F)(F)CC2` [Example 570, (S)-3-(4-(7,7-difluoro-2-(2-methylpyrrolidin-1-yl)-6,7-dihydro-5H-cyclopenta[d]pyrimidin-4-yl)phenyl)oxetan-3-amine], the IC50 at human KHK-A was 0.025 µM; against human KHK-C it was 0.0109 µM.

On to `NC1(c2ccc(-c3nc(N4CCC5CC54)nc4c3CCC4(F)F)cc2)COC1` (stereo not shown) [Example 571, 3-(4-(2-(2-azabicyclo[3.1.0]hexan-2-yl)-7,7-difluoro-6,7-dihydro-5H-cyclopenta[d]pyrimidin-4-yl)phenyl)oxetan-3-amine], for which the 50% inhibitory concentration (IC50) against human KHK-A came out at 0.0435 µM; at human KHK-C it was 0.0497 µM.

In the case of `NC1(c2ccc(-c3nc(N4CCC4C4CCC4)nc4c3CCC4(F)F)cc2)COC1` (stereo not shown) [Example 572, 3-(4-(2-(2-cyclobutylazetidin-1-yl)-7,7-difluoro-6,7-dihydro-5H-cyclopenta[d]pyrimidin-4-yl)phenyl)oxetan-3-amine], the concentration for half-maximal inhibition (IC50) on human KHK-A was more than 0.1 µM; against human KHK-C it was 0.0563 µM.

For the compound `C[C@H]1[C@H](O)CN1c1nc(-c2cc3c(s2)CCC3NS(C)(=O)=O)c2c(n1)C(F)(F)CC2` (stereo partly shown) [Example 574], the IC50 against human KHK-A was found to be 0.0111 µM; on human KHK-C, 0.0094 µM.

Regarding `C[C@@H]1N(c2nc(-c3ccc4c(c3)OC[C@@H]4NS(C)(=O)=O)c3c(n2)C(F)(F)CC3)C[C@@]1(C)O` [Example 575, N—((R)-6-(7,7-difluoro-2-((2S,3R)-3-hydroxy-2,3-dimethylazetidin-1-yl)-6,7-dihydro-5H-cyclopenta[d]pyrimidin-4-yl)-2,3-dihydrobenzofuran-3-yl)methanesulfonamide], the values for the IC50 at human KHK-A and on human KHK-C were 0.0524 µM and 0.0059 µM, respectively.

As for `C[C@@H]1N(c2nc(-c3ccc4c(c3)CCC43COC(=O)N3)c3c(n2)C(F)(F)CC3)C[C@@]1(C)O` (stereo partly drawn) [Example 576, 5-(7,7-difluoro-2-((2S,3R)-3-hydroxy-2,3-dimethylazetidin-1-yl)-6,7-dihydro-5H-cyclopenta[d]pyrimidin-4-yl)-2,3-dihydrospiro[indene-1,4′-oxazolidin]-2′-one], the IC50 was more than 0.1 µM at human KHK-A and 0.0068 µM on human KHK-C.

Broadly, the IC50 is the concentration that inhibits the measured activity by half. A lower IC50 goes with higher potency.

For the origin of these results see patent US12410160B2 (Gilead Sciences, Inc., priority 2021, dated 2025).
